Legend:
[1] = molecular target: T1, baculovirus-expressed human trkA cytoplasmic domain (Homo sapiens, UniProt P04629); test: Inhibition of trkA tyrosine kinase activity (ELISA-based assay); type: biochemical; conditions: for IC50: 40 μM ATP
T1 construct: baculovirus-expressed human trkA cytoplasmic domain; made in house; host or cells: baculovirus expression system
Method: Selected cyclic substituted fused pyrrolocarbazole and isoindolone compounds were tested for their ability to inhibit the kinase activity of baculovirus-expressed human trkA cytoplasmic domain using an ELISA-based assay as previously described (Angeles et al., Anal. Biochem. 236: 49-55, 1996). Briefly, the 96-well microtiter plate was coated with substrate solution (recombinant human phospholipase C-γ1/glutathione S-transferase fusion protein (Rotin et al., EMBO J., 11: 559-567, 1992). Inhibition studies were performed in 100 μl assay mixtures containing 50 mM Hepes, pH 7.4, 40 μM ATP, 10 mM MnCl2, 0.1% BSA, 2% DMSO, and various concentrations of inhibitor. The reaction was initiated by addition of trkA kinase and allowed to proceed for 15 minutes at 37° C. An antibody to phosphotyrosine (UBI) was then added, followed by a secondary enzyme-conjugated antibody, alkaline phosphatase-labelled goat antII-mouse IgG (Bio-Rad). The activity of the bound enzyme was measured via an amplified detection system (Gibco-BRL). Inhibition data were analyzed using the sigimoidal dose-response (variable slope) equation in GraphPad Prism.

[2] = molecular target: T2, PDGFβ receptor kinase domain (recombinant human PDGFRβ) (Homo sapiens, UniProt P09619); test: Inhibition of platelet derived growth factor receptor kinase activity (ELISA); type: biochemical; conditions: for inhibition at 0.3 µM: 300 nM compound, read-out: PDGFRβ % inh @ 300 nM (values in parentheses)
T2 construct: kinase activity of baculovirus-expressed PDGFβ receptor kinase domain; made in house; host or cells: baculovirus expression system
Method: Cyclic substituted fused pyrrolocarbazole and isoindolone compounds were examined for their inhibitory effects on the kinase activity of baculovirus-expressed PDGFβ receptor kinase domain using the trkA kinase ELISA described above. Assays were performed in substrate (PLC-γ/GST)-coated 96-well microtiter plates. Each 100-μl reaction mixture contained 50 mM HEPES, pH 7.4, 20 μM ATP, 10 mM MnCl2, 0.1% BSA, 2% DMSO, and various concentrations of inhibitor. The reaction was initiated by addition of prephosphorylated recombinant human enzyme (10 ng/ml PDGFRβ) and allowed to proceed for 15 minutes at 37° C. The prephosphorylated enzyme was prepared prior to use by incubation of the kinase in buffer containing 20 μM ATP and 10 mM MnCl2 for 1 hour at 4° C. Detection of phosphorylated product was done by adding horseradish peroxidase (HRP)-conjugated antII-phosphotyrosine antibody (UBI). The HRP substrate solution containing 3,3′-5,5′-tetramethylbenzidine and hydrogen peroxide was later added and the plates were incubated for 10 minutes at room temperature. The reaction was quenched with acid and the resulting absorbance was read at 450 nm using a Microplate Bio-kinetics Reader (Bio-Tek Instrument EL 312e). Inhibition data were analyzed using the sigmoidal dose-response (variable slope) equation in GraphPad Prism.

[3] = molecular target: T3, VEGF receptor (human flk-1, KDR, VEGFR2) kinase domain (Homo sapiens, UniProt P35968); test: Inhibition of vascular endothelial growth factor receptor kinase activity (ELISA); type: biochemical; conditions: for inhibition at 0.3 µM: 300 nM compound, read-out: VEGF receptor kinase activity % Inh. @ 300 nM (values in parentheses)
T3 construct: VEGF receptor (human flk-1, KDR, VEGFR2) kinase domain; made in house; host or cells: baculovirus expression system
Method: Cyclic substituted fused pyrrolocarbazole and isoindolone compounds were examined for their inhibitory effects on the kinase activity of baculovirus-expressed VEGF receptor (human flk-1, KDR, VEGFR2) kinase domain using the procedure described for the trkA kinase ELISA assay described above. The kinase reaction mixture, consisting of 50 mM Hepes, pH 7.4, 40 μM ATP, 10 mM MnCl2, 0.1% BSA, 2% DMSO, and various concentrations of inhibitor, was transferred to PLC-γ/GST-coated plates. VEGFR kinase was added and the reaction was allowed to proceed for 15 min. at 37 C. Detection of phosphorylated product was accomplished by addition of antII-phosphotyrosine antibody (UBI). A secondary enzymeconjugated antibody was delivered to capture the antibody-phosphorylated PLC-γ/GST complex. The activity of the bound enzyme was measured via an amplified detection system (Gibco-BRL). Inhibition data were analyzed using the sigmoidal dose-response (variable slope) equation in GraphPad Prism.

[4] = test system: ChAT activity in dissociated rat embryonic spinal cord culture; test: Enhancement of spinal cord ChAT activity; type: cell-based
Text: As discussed above, CHAT is a specific biochemical marker for functional cholinergic neurons. Cholinergic neurons represent a major cholinergic input into the hippocampal formation, olfactory nucleus, interpeduncular nucleus, cortex, amygdala, and parts of the thalamus. In the spinal cord, the motor neurons are cholinergic neurons which contain CHAT (Phelps et al., J. Comp. Neurol. 273:459-472 (1988)). ChAT activity has been used to study the effects of neurotrophins (e.g., NGF or NT-3) on the survival and/or function of cholinergic neurons. The ChAT assay also serves as an indication of the regulation of ChAT levels within cholinergic neurons.
For example, in these assays, a compound was directly added to a dissociated spinal cord culture. Compounds which increased ChAT activity at least 120% of the control activity were considered active.
Methods: Fetal rat spinal cord cells were dissociated, and experiments were performed as described (Smith et al., J. Cell Biology 101:1608-1621 (1985); Glicksman et al., J. Neurochem. 61:210-221 (1993)). […] ChAT activity was measured after 2 days in vitro using a modification of the Fonnum procedure (Fonnum, J. Neurochem. 24:407-409 (1975)) according to McManaman et al. and Glicksman et al. (McManamnan et al., Developmental Biology 125:311-320 (1988); Glicksman et al., J. Neurochem., supra).

[5] = molecular target: T4, trkA (NIH3T3 cells transfected with trkA) (Homo sapiens, UniProt P04629); test: Inhibition of NGF-stimulated trk phosphorylation in a whole cell preparation; type: cell-based; conditions: NGF 10 ng/ml
T4 construct: expressed in transfected cells; host or cells: NIH3T3
Method: NIH3T3 cells transfected with trkA were grown in 100 mm dishes. Subconfluent cells were serum-starved by replacing media with serum-free 0.05% BSA-DMEM containing compound (100 nM and 1 μM) or DMSO (added to controls) for one hour at 37° C. NGF (Harlan/Bioproducts for Science) was then added to the cells at a concentration of 10 ng/ml for 5 minutes. Cells were lysed in buffer containing detergent and protease inhibitors. Clarified cell lysates were normalized to protein using BCA method and immunoprecipitated with antII-trk antibody. Polyclonal antII-trk antibody was prepared against a peptide corresponding to the 14 amino acids at the carboxy terminus of trk (Martin-Zanca et al., Mol. Cell. Biol. 9: 24-33, 1989). The immune complexes were collected on Protein A Sepharose beads (Sigma Chem. Co., St. Lois, Mo.), separated by SDS polyacrylamide gel electrophoresis (SDS-PAGE), and transferred to a polyvinylidene difluoride (PVDF) membrane. The membrane was immunoblotted with antII-phosphotyrosine antibody (UBI), followed by incubation with horseradish peroxidase coupled goat antII-mouse IgG (Bio-Rad Laboratories, Hercules, Calif.). Phosphorylated proteins were visualized using ECL (Arnersham Life Science, Inc., Arlington Heights, Ill.). The area of the trk protein band was measured and compared to NGF-stimulated control. The inhibition scoring system used, based on percent decrease in trk protein band, was as follows: 0=no decrease; 1=1-25%; 2=26-49%; 3=50-75%; 4=76-100%.

[6] = molecular target: protein kinase C (UBI; mixed isozymes of a, b, g); test: Inhibition of protein kinase C activity (Millipore Multiscreen TCA in-plate assay); type: biochemical
Method: Protein kinase C activity was assessed using the Millipore Multiscreen TCA “in-plate” assay as described in Pitt, A. M. and Lee, C. (J. Biomol. Screening, 1: 47-51, 1996). Assays were performed in 96-well Multiscreen-DP plates (Millipore). Each […] assay mixture contained 20 mM Hepes, pH 7.4, 10 mM MgCl2, 2.5 mM EGTA, 2.5 mM CaCl2, […] phosphatidyl serine, […] diolein, […] histone H-1 (Fluka), […] [γ-^32P]ATP, 1.5 ng protein kinase C (UBI; mixed isozymes of a, b, g), 0.1% BSA, 2% DMSO, and test cyclic substituted fused pyrrolocarbazole compound. The reaction was allowed to proceed for 10 min at 37° C., then quenched by adding ice cold 50% trichloroacetic acid. The plates were allowed to equilibrate for 30 min at 4° C., then washed with ice cold 25% TCA. Scintillation cocktail was added to the plates, and the radioactivity was determined using Wallac MicroBeta 1450 PLUS scintillation counter. The IC50 values were calculated by fitting the data to the sigmoidal dose-response (variable slope) equation in GraphPad Prism.

T1 sequence (P04629 440-796 limits assumed): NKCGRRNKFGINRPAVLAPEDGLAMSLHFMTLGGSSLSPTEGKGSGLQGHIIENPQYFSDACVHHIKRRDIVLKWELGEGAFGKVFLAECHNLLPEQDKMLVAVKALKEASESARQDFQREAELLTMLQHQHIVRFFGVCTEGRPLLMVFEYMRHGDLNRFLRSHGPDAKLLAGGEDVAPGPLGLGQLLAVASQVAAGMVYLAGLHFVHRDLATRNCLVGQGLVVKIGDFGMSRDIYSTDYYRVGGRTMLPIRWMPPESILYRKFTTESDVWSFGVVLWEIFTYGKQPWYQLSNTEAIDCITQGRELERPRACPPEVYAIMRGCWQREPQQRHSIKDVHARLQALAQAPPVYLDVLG
T3 sequence (P35968 834-1162 limits assumed): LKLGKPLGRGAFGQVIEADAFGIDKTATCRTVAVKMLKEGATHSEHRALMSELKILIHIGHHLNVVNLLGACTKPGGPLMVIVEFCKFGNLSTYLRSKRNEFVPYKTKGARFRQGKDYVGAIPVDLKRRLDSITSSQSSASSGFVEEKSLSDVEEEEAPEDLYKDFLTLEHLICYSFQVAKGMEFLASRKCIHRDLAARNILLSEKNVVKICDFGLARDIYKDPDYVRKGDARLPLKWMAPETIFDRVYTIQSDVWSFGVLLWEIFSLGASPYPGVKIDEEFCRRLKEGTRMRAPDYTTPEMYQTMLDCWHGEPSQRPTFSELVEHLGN
T2 sequence (P09619 600-962 limits assumed): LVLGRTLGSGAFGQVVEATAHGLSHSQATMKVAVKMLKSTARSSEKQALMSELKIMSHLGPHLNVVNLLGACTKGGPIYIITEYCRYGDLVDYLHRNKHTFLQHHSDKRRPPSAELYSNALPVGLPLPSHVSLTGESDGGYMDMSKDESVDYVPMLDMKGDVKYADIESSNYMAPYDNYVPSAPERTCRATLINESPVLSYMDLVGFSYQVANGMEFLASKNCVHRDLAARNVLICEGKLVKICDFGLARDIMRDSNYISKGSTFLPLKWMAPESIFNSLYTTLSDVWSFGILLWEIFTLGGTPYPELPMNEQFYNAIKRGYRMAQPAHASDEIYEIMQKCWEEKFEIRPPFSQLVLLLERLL
T4 sequence (P04629 33-796, species assumed): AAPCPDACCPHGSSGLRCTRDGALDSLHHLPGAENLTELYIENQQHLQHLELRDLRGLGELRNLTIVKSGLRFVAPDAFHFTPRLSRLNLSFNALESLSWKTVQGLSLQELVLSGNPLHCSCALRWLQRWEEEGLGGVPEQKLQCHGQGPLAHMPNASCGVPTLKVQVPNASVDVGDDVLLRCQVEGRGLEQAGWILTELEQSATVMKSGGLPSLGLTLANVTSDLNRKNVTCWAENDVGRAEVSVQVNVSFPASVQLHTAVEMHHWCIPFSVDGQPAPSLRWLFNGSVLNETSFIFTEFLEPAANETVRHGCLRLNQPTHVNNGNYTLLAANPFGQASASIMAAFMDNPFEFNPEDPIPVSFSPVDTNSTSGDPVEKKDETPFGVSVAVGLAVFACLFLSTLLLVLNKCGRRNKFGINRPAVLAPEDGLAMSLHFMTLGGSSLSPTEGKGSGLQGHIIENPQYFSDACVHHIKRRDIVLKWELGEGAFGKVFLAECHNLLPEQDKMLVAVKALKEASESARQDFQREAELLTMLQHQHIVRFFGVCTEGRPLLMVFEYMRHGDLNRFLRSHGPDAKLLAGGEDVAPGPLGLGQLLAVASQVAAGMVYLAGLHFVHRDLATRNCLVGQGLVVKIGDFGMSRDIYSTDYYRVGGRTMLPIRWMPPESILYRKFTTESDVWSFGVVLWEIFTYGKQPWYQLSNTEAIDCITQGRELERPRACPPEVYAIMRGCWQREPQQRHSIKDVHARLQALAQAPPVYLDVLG

CCNC(=O)OCC1(C2c3ccccc3-c3c4c(c5c6ccccc6n(C(=O)NCC)c5c32)CNC4=O)CCCO1 (stereo not shown) [II-68]
IC50 [1]: 245 nM
inhibition at 0.3 µM [2]: 0%
inhibition at 0.3 µM [3]: 31%

CCNC(=O)n1c2ccccc2c2c3c(c4c(c21)C(C1(CO)CCCO1)c1ccccc1-4)C(=O)NC3 (stereo not shown) [II-69]
IC50 [1]: 24 nM
inhibition at 0.3 µM [2]: 18%
inhibition at 0.3 µM [3]: 49%

CC(C)(C)C(=O)OCC1(C2c3ccccc3-c3c4c(c5c([nH]c6ccccc65)c32)CNC4=O)CCCO1 (mixture of isomers) [II-20]
Spinal Cord ChAT (% control) Activity at 30 nM ([4]; 30 nM compound): 132 % control
Spinal Cord ChAT (% control) Maximal Activity ([4]; @ 500 nM): 191 @ 500 nM % control
trkA kinase activity % Inh. @ 300 nM (values in parentheses) ([1]; 300 nM compound): (39) %

COC(=O)[C@H]1CSC(CCn2c3ccccc3c3c4c(c5c(c32)Cc2ccccc2-5)C(=O)NC4)N1 (stereo partly shown) [II-67]
IC50 [1]: 555 nM
inhibition at 0.3 µM [2]: 23%
inhibition at 0.3 µM [3]: 65%

O=C1NCc2c1c1c(c3[nH]c4ccccc4c23)C(C2CCC(O)O2)c2ccccc2-1 (racemic) [II-23]
Cell Score @ 100 nM (percent decrease in trk protein band) ([5]; 100 nM compound): 2 (2=26-49%)
Cell Score @ 1 uM (percent decrease in trk protein band) ([5]; 1 uM compound): 4 (4=76-100%)
IC50 [1]: 19 nM
IC50 ([2]; 20 μM ATP): 648 nM
IC50 ([3]; 40 μM ATP): 79 nM
IC50 [6]: 644 nM

O=C1NCc2c1c1c(c3c2c2ccccc2n3CC2CC2)C(CC2CC2)c2ccccc2-1 (stereo not shown) [II-65]
IC50 [1]: 320 nM
inhibition at 0.3 µM [2]: 5%
inhibition at 0.3 µM [3]: 26%
Protein kinase C activity, values in parentheses ([6]; concentration not given): (20)

CC1C=CC(C(O)C2c3ccccc3-c3c4c(c5c([nH]c6ccccc65)c32)CNC4=O)n2c(=O)n(-c3ccccc3)c(=O)n21 (stereo not shown) [II-64]
IC50 [1]: 399 nM
inhibition at 0.3 µM [2]: 29%
inhibition at 0.3 µM [3]: 20%

— patent publication US6841567B1, “Cyclic substituted fused pyrrolocarbazoles and isoindolones” (Cephalon, Inc., priority 1999, dated 2005)
